Literature values, collected in PubChem BioAssay AID1259410 (Chemical Carcinogenesis Research Information System (CCRIS), 2018).

Tested on: rodent tumor promotion studies, tumor incidence
Experiment: CCRIS tumor promotion studies

In the case of `CN(C)CCCN1c2ccccc2Sc2ccc(Cl)cc21`, the outcome (Carcinogen: UV IRRADIATION, Doses [Carcinogen]: 0.53 J/CM2 INCREASED BY 20% EVERY 2 WK TO 1.60 J/CM2 AND MAINTAINED AT 1.60 J/CM2 UNTIL DEATH, ADMINISTERED 5 D/WK FOR 1, Doses [Promoter]: 0, 15 UG/G BEGINNING 2 WK POST FIRST CARCINOGEN DOSE ADMINISTERED 2 HR PRIOR TO EACH CARCINOGEN DOSE (STUDY DURATION: 30, Route [Carcinogen]: DERMAL, Route [Promoter]: INTRAPERITONEAL, Species: MOUSE, Strain/Sex: SKH/HRL/FEMALE) is listed as “skin: tumor”.
In the case of `Cn1cc[nH]c1=S`, the outcome (Carcinogen: Acrylonitrile, 79-06-1, Doses [Carcinogen]: 2-3 mg/kg in drinking water, study duration 2 mo, Doses [Promoter]: 100 mg/l in drinking water, study duration 2 mo, Route [Carcinogen]: Oral, Route [Promoter]: Oral, Species: Mouse, Strain/Sex: CD1/Female (20,?)/(30/ ?)) is given as “thyroid; no tumors”.
In the case of `Cc1ccc2cc3c(ccc4ccccc43)c3c2c1CC3`, the outcome (Carcinogen: N-BIS(2-HYDROXYPROPYL)NITROSAMINE, 53609-64-6, N-ETHYL-N-HYDROXYETHYLNITROSAMINE, 13147-25-6, 3,2'-DIMETHYL-4-AMINOB, Carcinogen: N-BIS(2-HYDROXYPROPYL)NITROSAMINE, 53609-64-6, N-ETHYL-N-HYDROXYETHYLNITROSAMINE, 13147-25-6, 3,2'-DIMETHYL-4-AMINOB, Doses [Carcinogen]: 1000 MG/KG IP IN SALINE ON DAY 1 AND 4, 1500 MG/KG IG IN DISTILLED WATER ON DAY 8 AND 11, 75 MG/KG SC IN CORN OIL ON D, Doses [Carcinogen]: 1000 MG/KG IP IN SALINE ON DAY 1 AND 4, 1500 MG/KG IG IN DISTILLED WATER ON DAY 8 AND 11, 75 MG/KG SC IN CORN OIL ON D, Doses [Promoter]: 0, 0.02% IN DIET BEGINNING 1 WK POST LAST CARCINOGEN DOSE AND CONTINUING FOR 12 WK (STUDY DURATION: 16 WK), Route [Carcinogen]: INTRAPERITONEAL, GAVAGE, SUBCUTANEOUS, Route [Carcinogen]: INTRAPERITONEAL, GAVAGE, SUBCUTANEOUS, Route [Promoter]: ORAL, Species: RAT, Strain/Sex: F344/MALE) is listed as “lung: adenoma or adenocarcinoma”.
In the case of `O=NN1CCCC1`, the outcome (Carcinogen: N-BUTYL-N-4(HYDROXYBUTYL)NITROSAMINE, 3817-11-6, Doses [Carcinogen]: 0.05% IN DRINKING WATER FOR 2 WK, Doses [Promoter]: 0, 0.02% IN DIET STARTING POST CARCINOGEN AND CONTINUING FOR 22 WK, LEFT URETER LIGATED 8 D POST CARCINOGEN (STUDY DURAT, Route [Carcinogen]: ORAL, Route [Promoter]: ORAL, Species: RAT, Strain/Sex: F344/MALE) is listed as “bladder: papilloma”.
For `COc1cccc(O)c1O`, the outcome (Carcinogen: DIETHYLNITROSAMINE, 55-18-5, N-METHYL-N-NITROSOUREA, 684-93-5, 1,2-DIMETHYLHYDRAZINE, 540-73-8, N-BUTYL-N-(4-HYDRO, Carcinogen: DIETHYLNITROSAMINE, 55-18-5, N-METHYL-N-NITROSOUREA, 684-93-5, 1,2-DIMETHYLHYDRAZINE, 540-73-8, N-BUTYL-N-(4-HYDRO, Doses [Carcinogen]: 100 MG/KG BW DEN ONCE THEN 20 MG/KG BW MNU 1/D FOR 4 D FOLLOWED BY 40 MG/KG BW DMH 1/D FOR 4 D, 0.05% BHBN IN DRINKING W, Doses [Promoter]: 0, 2% IN DIET FOR 24 WK BEGINNING 3 D POST CARCINOGEN TREATMENT (STUDY DURATION: 28 WK), Route [Carcinogen]: INTRAPERITONEAL, INTRAPERITONEAL, SUBCUTANEOUS, ORAL, Route [Carcinogen]: INTRAPERITONEAL, INTRAPERITONEAL, SUBCUTANEOUS, ORAL, Route [Promoter]: ORAL, Species: RAT, Strain/Sex: F344/MALE) is listed as “forestomach: papilloma, squamous cell carcinoma or carcinoma in situ; glandular”.
For `C[C@@]12C(=O)OC(=O)[C@]1(C)[C@H]1CC[C@@H]2O1`, the outcome (Carcinogen: 7,12-DIMETHYLBENZ(A)ANTHRACENE, Doses [Carcinogen]: TOP, Route [Carcinogen]: DERMAL, Route [Promoter]: DERMAL, Species: MOUSE, Strain/Sex: FEMALE) is listed as “integumentary system (skin)”.
In the case of `CC1=C(/C=C/C(C)=C/C=C/C(C)=C\C(=O)O)C(C)(C)CCC1`, the outcome (Carcinogen: ETHYLNITROSOUREA [759-73-9], Doses [Carcinogen]: 120 UG/KG ONCE, Doses [Promoter]: 200 MG/KG FEED FOR 60 WK (STUDY DURATION: 60 WK), Route [Carcinogen]: IP INJECTION, Route [Promoter]: DIET, Species: MOUSE, Strain/Sex: B6C3F1/MALE (?,44)/(?,35)) is listed as “liver: hepatocellular carcinoma”.
For `COc1ccc(N)cc1N`, the outcome (Carcinogen: N-BIS(2-HYDROXYPROPYL)NITROSAMINE, 53609-64-6, Doses [Carcinogen]: 210 MG/100 G, ONCE (STUDY DURATION: 20 WK), Doses [Promoter]: 0, 0.5% IN DIET FOR 19 WK (STUDY DURATION: 20 WK), Route [Carcinogen]: INTRAPERITONEAL, Route [Promoter]: ORAL, Species: RAT, Strain/Sex: WISTAR/MALE) is listed as “thyroid gland: carcinoma, adenoma”.
In the case of `C=C[C@@](C)(CCC=C(C)C)c1ccc2c3c(c[nH]c13)C[C@@H](CO)NC(=O)[C@H](C(C)C)N2C`, the outcome (Carcinogen: 7,12-DIMETHYLBENZ[A]ANTHRACENE, 57-97-6, Doses [Carcinogen]: 100 UG IN 0.1 ML ACETONE, Doses [Promoter]: 0, 3 UG IN 0.1 ML ACETONE 2/WK FOR 29 WK BEGINNING 1 WK POST CARCINOGEN DOSE (STUDY DURATION: 30 WK), Route [Carcinogen]: DERMAL, Route [Promoter]: DERMAL, Species: MOUSE) is given as “skin: tumor” and the outcome (Carcinogen: DIMETHYLBENZ[A]ANTHRACENE, 57-97-6, Doses [Carcinogen]: 100 UG IN 100 µL ACETONE APPLIED TO THE BACK ONCE, Doses [Promoter]: 2.5 UG IN 100 µL ACETONE APPLIED TO THE BACK FOR 30 WK BEGINNING 1 WK POST CARCINOGEN DOSE (STUDY DURATION: 31 WK), Route [Carcinogen]: DERMAL, Route [Promoter]: DERMAL, Species: MOUSE, Strain/Sex: CD-1/FEMALE) is given as “skin: papilloma”.
For `O=C(CCNNC(=O)c1ccncc1)NCc1ccccc1`, the outcome (Carcinogen: N-METHYL-N'-NITRO-NITROSOGUANIDINE, Doses [Carcinogen]: 25 UG/ML IN DRINKING WATER FOR 25 WK, Doses [Promoter]: 0, 50 MG/KG IN OLIVE OIL 1/2D FOR 26 WK ADMINISTERED POST CARCINOGEN DOSES (STUDY DURATION: 52 WK), Route [Carcinogen]: ORAL, Route [Promoter]: SUBCUTANEOUS, Species: RAT, Strain/Sex: WISTAR/MALE) is given as “glandular stomach: adenocarcinoma”.
